In patent publication US20060281687A1, “Cyclin groove inhibitors” (priority 2003, published 2006):
Non-standard residues stand in square brackets, D forms with d. Residues, ends and D or L forms follow the SMILES beside them. *: point of attachment. X14 = O=C(c1ccc(-n2cncn2)c([N+](=O)[O-])c1)*; X3 = Cc1nc(C(=O)*)nn1-c1ccc([N+](=O)[O-])cc1; X2 = CC(C)n1c(C(F)(F)F)nc2cc(C(=O)*)ccc21; X6 = O=C(COn1c(-c2ccccc2)nc2ccc(Cl)cc21)*; X10 = O=C(c1c(-c2ccccc2)nc2cccc(Cl)n12)*; X4 = Cc1nc(C(=O)*)nn1-c1cccc(C(F)(F)F)c1; X8 = COc1cc(-n2nc(C(=O)*)nc2C)c(Cl)cc1Cl; X11 = Cc1nc(C(=O)*)nn1-c1cc(Cl)cc(Cl)c1; Phe(4-F) = N[C@@H](Cc1ccc(F)cc1)C(=O)O; X13 = Cc1nc(C(=O)*)nn1-c1ccc(Cl)cc1Cl; X9 = O=C(COn1c(-c2ccccc2)nc2ccccc21)*; X5 = Cc1nc(C(=O)*)nn1-c1ccc(Cl)cc1; X7 = O=C(c1ccc2nc(-n3cccc3)sc2c1)*; X1 = Cc1nc(C(=O)*)nn1-c1ccc(F)cc1; X12 = O=C(c1ccc(N2CCNC2=S)cc1)*

What was measured:
[1] = target: T1, CDK2/cyclin A (Homo sapiens, UniProt P20248); test: Functional kinase assay (phosphorylation of GST-pRb(773-928)); type: biochemical; conditions: recombinant human CDK2/cyclin A; GST-pRb(773-928) substrate; 100 μM ATP; 30 min at 30° C.; read-out: Inhibitory activity IC50 ± SD, Functional kinase assay
Protocol: CDK2/cyclin A kinase assays (phosphorylation of natural retinoblastoma protein (pRb)) were performed in 96-well plates using recombinant proteins. To each well were added: 10 μL assay buffer (50 mM HEPES pH 7.4, 20 mM β-glycerophosphate, 5 mM EGTA, 2 mM dithiothreitol, 1 mM NaVO3, and 20 mM MgCl2), 5 μL GST-pRb(773-928) substrate stock solution,10 μL test compound solution, 10 μL (2-5 μg protein) of purified recombinant human CDK2/cyclin A stock. The reaction was initiated by addition of 10 μL/well Mg/ATP mix (15 mM MgCl2, 100 μM ATP with 30-50 kBq per well of [γ-^32P]-ATP) and mixtures were incubated with shaking for 30 min at 30° C. Reactions were stopped on ice, followed by addition of 5 μL/well of glutathione-Sepharose 4B (Amersham Biosciences) and further incubation with shaking for 30 min at room temperature. The mixtures were then filtered on Whatman GF/C filterplates and washed 4 times with 0.2 mL/well of 50 mM HEPES containing 1 mM ATP. Plates were dried, sealed, and scintillant (Microscint 40) was added. Incorporated radioactivity was measured using a scintillation counter (TopCount, Packard Instruments, Pangbourne, Berks, UK). Half-maximal inhibition (IC50) was calculated from dose—response curves.

[2] = target: T1, CDK2/cyclin A; test: Competitive binding assay (fluorescence polarisation, fluorescein tracer peptide); conditions: purified recombinant human CDK2/cyclin A; tracer fluorescein-Ahx-His-Ala-Lys-Arg-Arg-Leu-Ile-Phe-NH2; 1 h room temperature; read-out: Inhibitory activity IC50 ± SD, Competitive binding assay
Protocol: Competitive Binding Assay
This assay was performed using half-area black 96-well microtitre plates. To each well were added: 10 μL assay buffer (25 mM HEPES pH 7, 10 mM NaCl, 0.01% Nonidet P-40, 1 mM dithiothreitol), 10 μL test compound solution (in 10% aq DMSO), 10 μL CDK2/cyclin A (ca. 2 μg purified recombinant human kinase complex) in assay buffer, and 10 μL tracer peptide solution (150 nM fluorescein-Ahx-His-Ala-Lys-Arg-Arg-Leu-Ile-Phe-NH2; refer McInnes, C. et al., 2003, Curr. Med. Chem. Anti-Cancer Agents, 3, 57; Atkinson, G. E. et al., 2002, Bioorg. Med. Chem. Lett., 12, 2501) in assay buffer. After incubation with shaking for 1 h at room temperature, fluorescence polarisation at 485-520 nm was measured using a Tecan Ultra reader. Half-maximal inhibition (IC50) was calculated from dose—response curves.

IC50 [1] [µM]	IC50 [2] [µM]	Structure (SMILES)
8.55 ± 2.11	22.7 ± 2.72	CC(C)C[C@@H](CNc1cccc(Oc2ccccc2)c1)NC(=O)[C@H](CCCNC(=N)N)NC(=O)[C@@H](N)CCCNC(=N)N [Compound 29]
19 ± 3	5.8 ± 1.6	CC(C)C[C@H](NC(=O)[C@H](CCCNC(=N)N)NC(=O)c1ccc(N2CCNC2=S)cc1)C(=O)N[C@@H](CC(N)=O)C(=O)N[C@@H](Cc1ccc(F)cc1)C(N)=O [Compound 5] (X12-RLN[Phe(4-F)]-NH2)
8.37 ± 4.24	58.2 ± 3.82	CC(C)C[C@@H](CNc1cccc(OCc2ccccc2)c1)NC(=O)[C@H](CCCNC(=N)N)NC(=O)[C@@H](N)CCCNC(=N)N [Compound 30]
8.81 ± 1.08	4.7 ± 0.7	CC(C)C[C@H](NC(=O)[C@H](CCCNC(=N)N)NC(=O)[C@@H](N)CCCNC(=N)N)C(=O)NCc1cccc(Oc2ccccc2)c1 [Compound 26]
6.4 ± 0.3	3.6 ± 0.6	Cc1nc(C(=O)N[C@@H](CCCNC(=N)N)C(=O)N[C@@H](CC(C)C)C(=O)N[C@@H](CC(N)=O)C(=O)N[C@@H](Cc2ccc(F)cc2)C(N)=O)nn1-c1ccc(Cl)cc1Cl [Compound 4] (X13-RLN[Phe(4-F)]-NH2)
3.7 ± 0.2	2.1 ± 0.2	Cc1nc(C(=O)N[C@@H](CCCNC(=N)N)C(=O)N[C@@H](CC(C)C)C(=O)N[C@@H](CC(N)=O)C(=O)N[C@@H](Cc2ccc(F)cc2)C(N)=O)nn1-c1cc(Cl)cc(Cl)c1 [Compound 10] (X11-RLN[Phe(4-F)]-NH2)
21.1 ± 7	2.6 ± 0.4	CC(C)C[C@H](NC(=O)[C@H](CCCNC(=N)N)NC(=O)c1ccc2c(c1)nc(C(F)(F)F)n2C(C)C)C(=O)N[C@@H](CC(N)=O)C(=O)N[C@@H](Cc1ccc(F)cc1)C(N)=O [Compound 13] (X2-RLN[Phe(4-F)]-NH2)
5.4 ± 0.9	6.4 ± 1.8	Cc1nc(C(=O)N[C@@H](CCCNC(=N)N)C(=O)N[C@@H](CC(C)C)C(=O)N[C@@H](CC(N)=O)C(=O)N[C@@H](Cc2ccc(F)cc2)C(N)=O)nn1-c1ccc([N+](=O)[O-])cc1 [Compound 7] (X3-RLN[Phe(4-F)]-NH2)
37 ± 6	15 ± 2	CC(C)C[C@H](NC(=O)[C@H](CCCNC(=N)N)NC(=O)COn1c(-c2ccccc2)nc2ccccc21)C(=O)N[C@@H](CC(N)=O)C(=O)N[C@@H](Cc1ccc(F)cc1)C(N)=O [Compound 9] (X9-RLN[Phe(4-F)]-NH2)
29.8 ± 12	35 ± 2.03	CC(C)C[C@H](NC(=O)[C@H](CCCNC(=N)N)NC(=O)[C@@H](N)CCCNC(=N)N)C(=O)Nc1cccc(OCc2ccccc2)c1 [Compound 25]
4.4 ± 0.8	6.1 ± 1.2	Cc1nc(C(=O)N[C@@H](CCCNC(=N)N)C(=O)N[C@@H](CC(C)C)C(=O)N[C@@H](CC(N)=O)C(=O)N[C@@H](Cc2ccc(F)cc2)C(N)=O)nn1-c1ccc(F)cc1 [Compound 6] (X1-RLN[Phe(4-F)]-NH2)
53 ± 25	12 ± 2	CC(C)C[C@H](NC(=O)[C@H](CCCNC(=N)N)NC(=O)c1c(-c2ccccc2)nc2cccc(Cl)n12)C(=O)N[C@@H](CC(N)=O)C(=O)N[C@@H](Cc1ccc(F)cc1)C(N)=O [Compound 1] (X10-RLN[Phe(4-F)]-NH2)
30 ± 16	12 ± 2	CC(C)C[C@H](NC(=O)[C@H](CCCNC(=N)N)NC(=O)COn1c(-c2ccccc2)nc2ccc(Cl)cc21)C(=O)N[C@@H](CC(N)=O)C(=O)N[C@@H](Cc1ccc(F)cc1)C(N)=O [Compound 11] (X6-RLN[Phe(4-F)]-NH2)
4.3 ± 2.1	4.1 ± 1.3	Cc1nc(C(=O)N[C@@H](CCCNC(=N)N)C(=O)N[C@@H](CC(C)C)C(=O)N[C@@H](CC(N)=O)C(=O)N[C@@H](Cc2ccc(F)cc2)C(N)=O)nn1-c1ccc(Cl)cc1 [Compound 3] (X5-RLN[Phe(4-F)]-NH2)
87 ± 14	219 ± 10	Cc1cc(NC(=O)C2CCCCC2C(=O)N[C@@H](CC(C)C)C(=O)N[C@@H](CC(N)=O)C(=O)N[C@@H](Cc2ccc(F)cc2)C(N)=O)no1 (stereo partly shown) [Compound 15]
26 ± 5	28 ± 4	CC(C)C[C@H](NC(=O)[C@H](CCCNC(=N)N)NC(=O)c1ccc(-n2cncn2)c([N+](=O)[O-])c1)C(=O)N[C@@H](CC(N)=O)C(=O)N[C@@H](Cc1ccc(F)cc1)C(N)=O [Compound 8] (X14-RLN[Phe(4-F)]-NH2)
11 ± 7	0.93 ± 0.05	COc1cc(-n2nc(C(=O)N[C@@H](CCCNC(=N)N)C(=O)N[C@@H](CC(C)C)C(=O)N[C@@H](CC(N)=O)C(=O)N[C@@H](Cc3ccc(F)cc3)C(N)=O)nc2C)c(Cl)cc1Cl [Compound 2] (X8-RLN[Phe(4-F)]-NH2)
3.65 ± 0.92	2.8 ± 0.42	Cc1nc(C(=O)N[C@@H](CCCNC(=N)N)C(=O)N[C@@H](CC(C)C)C(=O)N[C@@H](CC(N)=O)C(=O)N[C@@H](Cc2ccc(F)cc2)C(N)=O)nn1-c1cccc(C(F)(F)F)c1 [Compound 14] (X4-RLN[Phe(4-F)]-NH2)
21.9 ± 4.9	56.9 ± 1.9	CC(C)C[C@H](NC(=O)[C@H](CCCNC(=N)N)NC(=O)[C@@H](N)CCCNC(=N)N)C(=O)Nc1cccc(Oc2ccccc2)c1 [Compound 24]
15.3 ± 3.1	4.8 ± 0.4	CC(C)C[C@H](NC(=O)[C@H](CCCNC(=N)N)NC(=O)c1ccc2nc(-n3cccc3)sc2c1)C(=O)N[C@@H](CC(N)=O)C(=O)N[C@@H](Cc1ccc(F)cc1)C(N)=O [Compound 12] (X7-RLN[Phe(4-F)]-NH2)
